Test results published in patent US7220772B2, “Pyrazole derivatives” (Pfizer, Inc., priority 2003, dated 2007).

What was measured:
[1] = target: T1, HIV-1 reverse transcriptase (Human immunodeficiency virus type 1 group M subtype B, UniProt P04585); experiment: Inhibition of HIV-1 Reverse Transcriptase Enzyme; type: biochemical; conditions: purified recombinant HIV-1 RT expressed in Escherichia Coli; [3H]-SPA or [3H]-flashplate enzyme assay; 5% final DMSO
T1 construct: purified recombinant HIV-1 reverse transcriptase (RT, EC, 2.7.7.49) obtained by expression in Escherichia Coli; made in house; host or cells: Escherichia coli
From the text: The activity of the compounds of the invention as reverse transcriptase inhibitors may be measured using the following assay.
Inhibition of HIV-1 Reverse Transcriptase Enzyme
Using purified recombinant HIV-1 reverse transcriptase (RT, EC, 2.7.7.49) obtained by expression in Escherichia Coli, a 96-well plate assay system is established for assaying a large number of samples using either the Poly(rA)-oligo(dT) Reverse Transcriptase [3H]-SPA enzyme assay system (Amersham NK9020) or the [3H]-flashplate enzyme assay system (NEN-SMP 103) and following the manufacturer's recommendations. The compounds are dissolved in 100% DMSO and diluted with the appropriate buffer to a 5% final DMSO concentration. The inhibitory activity is expressed in percent inhibition relative to DMSO control.

Row | Compound | IC50 [1] | melting point
1 | CCc1n[nH]c(CCOc2ccc(SC)cc2)c1Oc1cc(C#N)cc(C#N)c1 [Example 1, 5-[(3-Ethyl-5-{2-[4-(methylsulfanyl)phenoxy]ethyl}-1H-pyrazol-4-yl)oxy]isophthalonitrile] | 2 nM | 
2 | CCc1n[nH]c(CCOc2ccc(S(C)(=O)=O)cc2)c1Oc1cc(C#N)cc(C#N)c1 [Example 3, 5-[(3-Ethyl-5-{2-[4-(methylsulfonyl)phenoxy]ethyl}-1H-pyrazol-4-yl)oxy]isophthalonitrile] | 45 nM | 88 to 90 °C
